Measured values as given in paper PMC12111156, “Nitazoxanide Analogs: Synthesis, In Vitro Giardicidal Activity, and Effects on Giardia lamblia Metabolic Gene Expression” (International Journal of Molecular Sciences, 2025).

Columns and labels:
[1] = Cytotoxicity, XTT viability assay, HT-29; conditions: human, HT-29 cells, CC50 HT-29, 48 h, XTT
Procedure: (§1) The cytotoxicity assay was performed to evaluate the effect of the selected compounds on human cells. Colon cells were used because they are cell lines like those present in the microenvironment where G. lamblia colonizes, which is the small intestine of the host. The assay was performed using the human cell lines Caco-2 (ATCC HTB-37) and HT-29 (ATCC […]). Cell viability was determined using the Cell Proliferation Kit II (XTT, St. Louis, MO, EE. UU.). A cell suspension of 2 × 10^3 cells/mL was prepared in Dulbecco’s modified Eagle’s medium (DMEM) supplemented with 10% inactivated fetal bovine serum and an antibiotic (1% penicillin/streptomycin, 5000 U/mL, in a volume of 100 µL). The suspension was added to a 96-well plate. The plates were incubated for 24 h at 37 °C in a 5% CO2 atmosphere. […] The cells were incubated for 48 h at 37 °C in a 5% CO2 atmosphere. Cell viability was determined using the following steps. The medium in each well was replaced with 100 µL of fresh medium, and 50 µL of XTT labeling mix was added per well. The reaction was incubated for four hours at 37 °C and 5% CO2. After incubation, the absorbance of the samples on the plate was measured at 450 nm. Each compound was assayed in triplicate in three independent experiments. CC50 values (μM) were determined using the nonlinear regression function of GraphPad Prism version 8 for Windows.

[2] = system: HT-29 cells; test: Cytotoxicity, XTT viability assay, HT-29; conditions: CC50 HT-29 / IC50 trophozoite ATCC strain 30957
Procedure: as §1

[3] = Cytotoxicity, XTT viability assay, Caco-2; conditions: human
Procedure: as §1

[4] = system: G. lamblia trophozoites; test: Cell damage by transmission electron microscopy; format: cell-based, Giardia lamblia; conditions: IC50 concentration, 24 h
Procedure: The trophozoites were incubated for 24 h at 37 °C and then collected by cooling them in an ice bath for 10 min and centrifuging at 2000 rpm for 7 min. The samples were sent for preparation and observation at the Instituto de Fisiología Celular, UNAM. The analysis was performed using a JEOL-JEM-1200 transmission electron microscope (JEOL LTD, Tokyo, Japan) equipped with a GATAN CCD camera at the Imaging Unit of the Institute of Cellular Physiology, UNAM.

Structure (SMILES): CCCCC(=O)Nc1ncc([N+](=O)[O-])s1 [FLP-2, N-(5-Nitro-1,3-thiazol-2-yl)pentanamide]
- CC50 at 48 h [1]: 1910 µM
- Selectivity index (CC50/IC50) HT-29 [2]: 531
- selectivity ratio at 48 h ([3]; Caco-2): 884
- CC50 at 48 h ([3]; Caco-2, CC50 Caco-2, 48 h, XTT): 3180 µM
- Ultrastructural effect on trophozoites (TEM) [4]: significant morphological alterations
